Experiment [1] concerns the target T1, human LXRβ ligand binding domain (Homo sapiens, UniProt P55055).
T1 construct: made in house; host or cells: E. coli BL21 (DE3), vector pRSETa
T1 sequence (P55055 184-460 limits assumed): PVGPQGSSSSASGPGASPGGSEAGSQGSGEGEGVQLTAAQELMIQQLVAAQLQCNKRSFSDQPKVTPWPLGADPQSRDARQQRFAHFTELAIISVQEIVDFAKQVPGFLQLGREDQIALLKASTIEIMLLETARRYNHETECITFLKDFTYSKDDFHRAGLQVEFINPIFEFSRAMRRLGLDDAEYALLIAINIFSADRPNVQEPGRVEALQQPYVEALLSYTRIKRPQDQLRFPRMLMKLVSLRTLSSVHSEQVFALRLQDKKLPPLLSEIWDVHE
T1 sequence (Q15788 676-700 partner limits assumed): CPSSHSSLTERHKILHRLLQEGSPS
In words: Assay for LXRβ Activity (HTRF, SRC-1 peptide recruitment). To be noted: 1 μM; over a background reading of 10000 fluorescence units. It counts as biochemical. The method, then:
A modified polyhistidine tag (MKKGHHHHHHG) (SEQ ID No. 1) was fused in frame to the human LXRβ ligand binding domain (amino acids 185-461 of Genbank accession number U07132) and subcloned into the expression vector pRSETa (Invitrogen) under the control of an IPTG inducible T7 promoter. The human LXRβ ligand binding domain was expressed in E. coli strain BL21 (DE3). Ten-liter fermentation batches were grown in Rich PO4 media with 0.1 mg/mL Ampicillin at 25° C. for 12 hours, cooled to 9° C. and held at that temperature for 36 hours to a density of OD600=14. At this cell density, 0.25 mM IPTG was added and induction proceeded for 24 hours at 9° C., to a final OD600=16. Cells were harvested by centrifugation (20 minutes, 3500 g, 4° C.), and concentrated cell slurries were stored in PBS at −80° C.
Typically 25-50 g of cell paste is resuspended in 250-500 mL TBS, pH 8.0 (25 mM Tris, 150 mM NaCl). Cells are lysed by passing 3 times through an APV Rannie MINI-lab homogenizer and cell debris is removed by centrifugation (30 minutes, 20,000 g, 4° C.). […] After washing to baseline absorbance with equilibration buffer, the column is washed with approximately one column volume of TBS pH […] containing 95 mM imidazole. […] After washing to baseline absorbance with the dilution buffer the protein is eluted with a gradient from 50-500 mM NaCl. […]
In general terms: In TR-FRET formats the signal depends on donor and acceptor labels being close together.

The target of experiment [2] is T2, LXRα ligand binding domain (Homo sapiens, UniProt Q13133).
T2 construct: His tag; made in house
T2 sequence (Q13133 183-447): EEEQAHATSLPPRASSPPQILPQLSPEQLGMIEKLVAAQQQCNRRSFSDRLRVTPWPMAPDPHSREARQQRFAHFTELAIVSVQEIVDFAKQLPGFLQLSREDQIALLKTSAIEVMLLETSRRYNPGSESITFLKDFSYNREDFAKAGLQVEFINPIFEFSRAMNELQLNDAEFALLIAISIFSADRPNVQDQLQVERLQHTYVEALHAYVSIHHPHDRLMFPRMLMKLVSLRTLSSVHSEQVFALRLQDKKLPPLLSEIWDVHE
T2 sequence (Q15788 676-700 partner): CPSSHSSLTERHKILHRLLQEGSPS
Briefly: Assay for LXRα Activity (HTRF, run as Example 1). Conditions: 1 μM; over a background reading of 10000 fluorescence units. In kind it is biochemical. The method, then: The assay for LXRα was run according to the procedures of Example 1, above using his-tagged LXRα ligand binding domain (amino acids 183-447 of Genbank accession number U22662, with the 14th amino acid corrected to A from R).
In this assay 1 μM 24(S),25-epoxycholesterol gave a reading of 20000 fluorescence units over a background reading of 10000 fluorescence units.

As for `C[C@H](CC[C@@H]1OC1(C)C)[C@H]1CC[C@H]2[C@@H]3CC=C4C[C@@H](O)CC[C@]4(C)[C@H]3CC[C@]12C` [24(S),25-epoxycholesterol], the reading in experiment [1] and in experiment [2] was 20000 fluorescence units throughout.

For the origin of these results see US20050282908A1, “Substituted aminopropoxyaryl derivatives useful as agonists for LXR” (SmithKline Beecham Corporation, priority 2000, published 2005).
